Measurements as given in ChEMBL document CHEMBL2074233, “Expression and pharmacological profile of the human organic cation transporters hOCT1, hOCT2 and hOCT3” (Br J Pharmacol, 2002).

Assays:
[1] = target: T1, Solute carrier family 22 member 3 (Homo sapiens, UniProt O75751); experiment: TP_TRANSPORTER: inhibition of MPP+ uptake (MPP+: 0.025 uM) in OCT3-expressing HEK293 cells
T1 sequence (O75751 whole entry): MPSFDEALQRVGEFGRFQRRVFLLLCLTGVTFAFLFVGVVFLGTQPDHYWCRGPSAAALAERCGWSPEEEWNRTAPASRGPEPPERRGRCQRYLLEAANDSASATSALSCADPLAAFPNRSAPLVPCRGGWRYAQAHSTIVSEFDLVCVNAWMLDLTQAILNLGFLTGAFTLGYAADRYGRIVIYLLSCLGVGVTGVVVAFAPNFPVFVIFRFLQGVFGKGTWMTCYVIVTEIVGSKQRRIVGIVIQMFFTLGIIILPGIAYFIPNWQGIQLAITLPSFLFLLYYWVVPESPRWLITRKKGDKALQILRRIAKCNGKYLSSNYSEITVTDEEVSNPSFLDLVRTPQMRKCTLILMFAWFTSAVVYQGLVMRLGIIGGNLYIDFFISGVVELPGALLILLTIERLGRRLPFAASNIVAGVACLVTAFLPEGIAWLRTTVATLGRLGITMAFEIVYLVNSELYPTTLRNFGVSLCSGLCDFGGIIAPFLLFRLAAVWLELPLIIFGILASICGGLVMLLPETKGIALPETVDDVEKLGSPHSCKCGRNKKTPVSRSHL

[2] = target: T2, Solute carrier family 22 member 1 (Homo sapiens, UniProt O15245); experiment: TP_TRANSPORTER: inhibition of MPP+ uptake (MPP+: 0.025 uM) in OCT1-expressing HEK293 cells
T2 sequence (O15245 whole entry): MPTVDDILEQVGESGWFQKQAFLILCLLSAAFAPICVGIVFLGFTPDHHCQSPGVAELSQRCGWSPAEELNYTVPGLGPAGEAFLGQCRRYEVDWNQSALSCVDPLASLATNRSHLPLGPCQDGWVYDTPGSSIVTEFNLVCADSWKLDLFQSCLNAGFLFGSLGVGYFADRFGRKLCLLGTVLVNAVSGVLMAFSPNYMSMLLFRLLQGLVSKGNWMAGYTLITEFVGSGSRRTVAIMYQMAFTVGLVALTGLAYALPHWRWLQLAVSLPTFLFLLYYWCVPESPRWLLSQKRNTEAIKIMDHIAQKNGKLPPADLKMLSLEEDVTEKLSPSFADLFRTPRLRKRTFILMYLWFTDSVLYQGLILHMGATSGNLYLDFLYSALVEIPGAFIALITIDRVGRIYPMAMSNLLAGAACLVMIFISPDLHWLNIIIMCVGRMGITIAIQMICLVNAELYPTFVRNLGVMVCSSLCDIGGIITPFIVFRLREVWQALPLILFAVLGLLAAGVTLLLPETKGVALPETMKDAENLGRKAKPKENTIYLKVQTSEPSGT

[3] = target: T3, Solute carrier family 22 member 2 (Homo sapiens, UniProt O15244); experiment: TP_TRANSPORTER: inhibition of MPP+ uptake (MPP+: 0.025 uM) in OCT2-expressing HEK293 cells
T3 sequence (O15244 whole entry): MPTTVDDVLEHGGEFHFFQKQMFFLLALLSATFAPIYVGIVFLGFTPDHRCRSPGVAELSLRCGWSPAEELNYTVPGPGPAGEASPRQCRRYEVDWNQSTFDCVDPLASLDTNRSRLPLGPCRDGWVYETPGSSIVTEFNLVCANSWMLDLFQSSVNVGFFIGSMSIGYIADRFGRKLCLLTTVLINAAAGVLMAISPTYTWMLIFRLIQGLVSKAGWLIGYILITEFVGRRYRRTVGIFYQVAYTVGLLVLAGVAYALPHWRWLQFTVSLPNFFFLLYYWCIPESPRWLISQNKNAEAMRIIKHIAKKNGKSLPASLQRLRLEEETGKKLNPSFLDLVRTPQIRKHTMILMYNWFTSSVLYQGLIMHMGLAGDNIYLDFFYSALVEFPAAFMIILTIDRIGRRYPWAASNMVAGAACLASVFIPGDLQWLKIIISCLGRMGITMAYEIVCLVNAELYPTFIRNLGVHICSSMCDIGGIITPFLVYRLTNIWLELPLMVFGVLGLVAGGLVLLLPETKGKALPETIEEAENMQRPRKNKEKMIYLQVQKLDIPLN

| Structure (SMILES) | IC50 [1] | IC50 [2] | IC50 [3] |
| --- | --- | --- | --- |
| CCN1/C(=C/c2ccc3ccccc3[n+]2CC)C=Cc2ccccc21 | 90 nM | 980 nM | 1130 nM |
| CN(CCCl)C1c2ccccc2-c2ccccc21 | 50 nM | > 300 nM | 100 nM |
| COc1cc(C(O)CNC(C)C)ccc1O (stereo not given) [METIPRENALINE] | 4380 nM | > 100000 nM | > 100000 nM |
| C[C@]12C[C@H](O)[C@H]3[C@@H](CCC4=CC(=O)CC[C@@]43C)[C@@H]1CC[C@@H]2C(=O)CO [CORTICOSTERONE] | 290 nM | 21700 nM | 34200 nM |
| CC(COc1ccccc1)N(CCCl)Cc1ccccc1 (stereo not given) [PHENOXYBENZAMINE] | 6130 nM | 2720 nM |  |
| COc1cc2nc(N3CCN(C(=O)c4ccco4)CC3)nc(N)c2cc1OC [PRAZOSIN] | 12600 nM | 1840 nM |  |
| C[C@]12CC[C@@H]3c4ccc(O)cc4CC[C@H]3[C@@H]1CC[C@@H]2O [ESTRADIOL] | 2880 nM | 5730 nM |  |
| CC(=O)[C@H]1CC[C@H]2[C@@H]3CCC4=CC(=O)CC[C@]4(C)[C@H]3CC[C@]12C [PROGESTERONE] | 4280 nM | 3050 nM |  |
